Measured values published in ChEMBL document CHEMBL5316325, “Design and Synthesis of 3-Hydroxy-pyridin-4(1H)-ones-Ciprofloxacin Conjugates as Dual Antibacterial and Antibiofilm Agents against Pseudomonas aeruginosa” (J Med Chem, 2023).
Converted amounts (≈) assume the structure as drawn.

What was measured:
Format in all cases: functional
[1] = test system: Pseudomonas aeruginosa; test: Antibacterial activity against Pseudomonas aeruginosa 1129 in MHB medium assessed as bacterial growth inhibition by CLSI based broth microdilution method
[2] = test system: Pseudomonas aeruginosa; test: Antibacterial activity against Pseudomonas aeruginosa PAO1 in MHB medium assessed as bacterial growth inhibition by CLSI based broth microdilution method
[3] = test system: Escherichia coli; test: Antibacterial activity against Escherichia coli ATCC 25922 in MHB medium assessed as bacterial growth inhibition by CLSI based broth microdilution method
[4] = test system: Pseudomonas aeruginosa; test: Antibacterial activity against Pseudomonas aeruginosa PAO1 in ABTGC medium assessed as bacterial growth inhibition
[5] = test system: Pseudomonas aeruginosa; test: Antibacterial activity against Pseudomonas aeruginosa FB in MHB medium assessed as bacterial growth inhibition by CLSI based broth microdilution method
[6] = test system: Pseudomonas aeruginosa; test: Antibacterial activity against Pseudomonas aeruginosa ATCC 27853 in MHB medium assessed as bacterial growth inhibition by CLSI based broth microdilution method
[7] = test system: Pseudomonas aeruginosa; test: Antibacterial activity against Pseudomonas aeruginosa 1167 in MHB medium assessed as bacterial growth inhibition by CLSI based broth microdilution method
[8] = test system: Pseudomonas aeruginosa; test: Antibiofilm activity against Pseudomonas aeruginosa PAO1 in ABTGC medium assessed as biofilm biomass at 1/4 times MIC incubated for 24 hrs by crystal violet staining based assay relative to control
[9] = test system: Staphylococcus aureus; test: Antibacterial activity against Staphylococcus aureus ATCC 25923 in MHB medium assessed as bacterial growth inhibition by CLSI based broth microdilution method
[10] = test system: Klebsiella pneumoniae; test: Antibacterial activity against Klebsiella pneumoniae ATCC 700603 in MHB medium assessed as bacterial growth inhibition by CLSI based broth microdilution method
[11] = test system: Staphylococcus aureus; test: Antibacterial activity against methicillin-resistant Staphylococcus aureus ATCC 515992 in MHB medium assessed as bacterial growth inhibition by CLSI based broth microdilution method
[12] = test system: Pseudomonas aeruginosa; test: Antibiofilm activity against Pseudomonas aeruginosa PAO1 in ABTGC medium assessed as biofilm biomass at 1/2 times MIC incubated for 24 hrs by crystal violet staining based assay relative to control
[13] = test system: Pseudomonas aeruginosa; test: Antibacterial activity against Pseudomonas aeruginosa 1121 in MHB medium assessed as bacterial growth inhibition by CLSI based broth microdilution method
[14] = test system: Pseudomonas aeruginosa; test: Antibiofilm activity against Pseudomonas aeruginosa PAO1 in ABTGC medium assessed as biofilm biomass at MIC incubated for 24 hrs by crystal violet staining based assay relative to control

SMILES | MIC [1] [µM] | MIC [2] [µM] | MIC [3] [µM] | MIC [4] [µM] | MIC [5] [µM] | MIC [6] [µM] | MIC [7] [µM] | Activity [8] [%] | MIC [9] [µM] | MIC [10] [µM] | MIC [11] [µM] | Activity [12] [%] | MIC [13] [µM] | Activity [14] [%]
Cn1cc(O)c(=O)cc1Cn1cc(CCC(=O)N2CCN(c3cc4c(cc3F)c(=O)c(C(=O)O)cn4C3CC3)CC2)nn1 | 108 (≈ 64 µg/mL) | 27.1 (≈ 16 µg/mL) | 3.38 (≈ 2 µg/mL) | > 200 | 108 (≈ 64 µg/mL) | 108 (≈ 64 µg/mL) | 54.1 (≈ 32 µg/mL) | 99.4 | > 200 | > 200 | > 200 | 133.7 | 108 (≈ 64 µg/mL) | 52.1
Cc1cc(=O)c(O)c(CNC(=O)CCCCC(=O)N2CCN(c3cc4c(cc3F)c(=O)c(C(=O)O)cn4C3CC3)CC2)n1C | 6.56 (≈ 4 µg/mL) | 1.64 (≈ 1 µg/mL) | 0.05 (≈ 0.0305 µg/mL) | 13.1 (≈ 8 µg/mL) | 3.28 (≈ 2 µg/mL) | 3.28 (≈ 2 µg/mL) | 3.28 (≈ 2 µg/mL) | 27 | 13.1 (≈ 8 µg/mL) | 6.56 (≈ 4 µg/mL) | > 200 | 86.3 | 3.28 (≈ 2 µg/mL) | 23.3
Cc1cc(=O)c(O)cn1CCCn1cc(CCC(=O)N2CCN(c3cc4c(cc3F)c(=O)c(C(=O)O)cn4C3CC3)CC2)nn1 | 103 (≈ 64 µg/mL) | 103 (≈ 64 µg/mL) | 51.6 (≈ 32 µg/mL) | > 200 | 103 (≈ 64 µg/mL) | 103 (≈ 64 µg/mL) | 103 (≈ 64 µg/mL) | 97.6 | > 200 | > 200 | > 200 | 127.7 | 103 (≈ 64 µg/mL) | 71.7
Cn1cc(O)c(=O)cc1CNC(=O)CCCC(=O)N1CCN(c2cc3c(cc2F)c(=O)c(C(=O)O)cn3C2CC2)CC1 | 6.88 (≈ 4 µg/mL) | 0.86 (≈ 0.5 µg/mL) | 0.11 (≈ 0.064 µg/mL) | 13.8 (≈ 8 µg/mL) | 3.44 (≈ 2 µg/mL) | 3.44 (≈ 2 µg/mL) | 1.72 (≈ 1 µg/mL) | 23.4 | 13.8 (≈ 8 µg/mL) | 6.72 (≈ 3.91 µg/mL) | > 200 | 189 | 3.44 (≈ 2 µg/mL) | 75.3
Cn1cc(O)c(=O)cc1CNC(=O)CCC(=O)N1CCN(c2cc3c(cc2F)c(=O)c(C(=O)O)cn3C2CC2)CC1 | 3.52 (≈ 2 µg/mL) | 0.88 (≈ 0.499 µg/mL) | 0.06 (≈ 0.0341 µg/mL) | 7.05 (≈ 4 µg/mL) | 1.76 (≈ 0.999 µg/mL) | 1.76 (≈ 0.999 µg/mL) | 0.88 (≈ 0.499 µg/mL) | 29.2 | 7.05 (≈ 4 µg/mL) | 3.52 (≈ 2 µg/mL) | > 200 | 110.3 | 1.76 (≈ 0.999 µg/mL) | 55.3
O=C(CCC(=O)N1CCN(c2cc3c(cc2F)c(=O)c(C(=O)O)cn3C2CC2)CC1)NCc1cc(=O)c(O)c[nH]1 | 7.23 (≈ 4 µg/mL) | 1.81 (≈ 1 µg/mL) | 0.23 (≈ 0.127 µg/mL) | 14.4 (≈ 8 µg/mL) | 7.23 (≈ 4 µg/mL) | 7.23 (≈ 4 µg/mL) | 3.61 (≈ 2 µg/mL) | 19.9 | 3.61 (≈ 2 µg/mL) | 14.4 (≈ 8 µg/mL) | > 200 | 98.8 | 3.61 (≈ 2 µg/mL) | 169.8
Cc1cc(=O)c(O)c(CNC(=O)CCC(CCC(=O)NCc2c(O)c(=O)cc(C)n2C)(CCC(=O)NCc2c(O)c(=O)cc(C)n2C)NC(=O)CCCCC(=O)N2CCN(c3cc4c(cc3F)c(=O)c(C(=O)O)cn4C3CC3)CC2)n1C | 28.1 (≈ 32 µg/mL) | 3.51 (≈ 4 µg/mL) | 0.22 (≈ 0.251 µg/mL) | 56.2 (≈ 64 µg/mL) | 14 (≈ 16 µg/mL) | 7.02 (≈ 8 µg/mL) | 7.02 (≈ 8 µg/mL) | 158.1 | 14 (≈ 16 µg/mL) | 14 (≈ 16 µg/mL) | > 200 | 9.6 | 14 (≈ 16 µg/mL) | 15.1
O=C(CCC(=O)N1CCN(c2cc3c(cc2F)c(=O)c(C(=O)O)cn3C2CC2)CC1)NCc1cc(=O)c(O)cn1O | 7.02 (≈ 4 µg/mL) | 1.76 (≈ 1 µg/mL) | 0.22 (≈ 0.125 µg/mL) | 14.1 (≈ 8 µg/mL) | 7.02 (≈ 4 µg/mL) | 7.02 (≈ 4 µg/mL) | 3.51 (≈ 2 µg/mL) | 48.9 | 28.1 (≈ 16 µg/mL) | 14.1 (≈ 8 µg/mL) | > 200 | 54.2 | 7.02 (≈ 4 µg/mL) | 137
